According to patent US20030130272A1, “Anthracene derivatives as anti-cancer agents” (priority 1999, published 2003):
pIC50: −log10 of the molar value. Where a name gives a salt, the structure may show the parent alone.

What was measured:
[1] = test system: MAC 15A cells; assay: In vitro activity against MAC 15A adenocarcinoma (MTT assay); type: cell-based; conditions: MAC15A colon adenocarcinoma, 96 hours continuous exposure
Protocol: MAC 15A cells were grown in RPMI 1640 medium supplemented with 10% foetal calf serum containing a 1% antibiotic mixture under standard tissue culture conditions and were maintained at 37° C. in a humidified atmosphere of 5% CO2 in air. Cells were harvested from a stock culture in exponential growth phase and plated in 96-well flat-bottomed plates to achieve a final density of 2×10^3 cells per well. After 2 hours incubation medium was replaced with either fresh medium containing 0.5% DMSO (control) or medium containing test compound dissolved in DMSO at a concentrations from 10 mM to 1 nM. Chemosensitivity was assessed using MTT assay by the method of Plumb et al Cancer Research 49 (1989) 4435-4440.
Following 96 hours continuous exposure to drug at 37° C. cells were incubated with fresh drug-free medium immediately prior to addition of MTT solution (5 mg/ml). Medium and MTT were removed after 4 hours and 150 μl of DMSO was added. For each plate the absorbance of the resulting solution was measured at the analytical wavelength 550 nm for formnazan product, using a Labsystem Mutiskan. IC50 values were obtained from growth curves of drug concentration against % survival and are expressed in μm.
In vitro Cytotoxicity of Spacer Limked Anthraquinone Peptide Conjugates on MAC15A Colon Adenocarcinoma

[2] = target: T1, topo I (Homo sapiens, UniProt P11387); assay: Inhibition of topoisomerase I mediated relaxation of pBR322 DNA; type: biochemical
T1 sequence (P11387 1-765): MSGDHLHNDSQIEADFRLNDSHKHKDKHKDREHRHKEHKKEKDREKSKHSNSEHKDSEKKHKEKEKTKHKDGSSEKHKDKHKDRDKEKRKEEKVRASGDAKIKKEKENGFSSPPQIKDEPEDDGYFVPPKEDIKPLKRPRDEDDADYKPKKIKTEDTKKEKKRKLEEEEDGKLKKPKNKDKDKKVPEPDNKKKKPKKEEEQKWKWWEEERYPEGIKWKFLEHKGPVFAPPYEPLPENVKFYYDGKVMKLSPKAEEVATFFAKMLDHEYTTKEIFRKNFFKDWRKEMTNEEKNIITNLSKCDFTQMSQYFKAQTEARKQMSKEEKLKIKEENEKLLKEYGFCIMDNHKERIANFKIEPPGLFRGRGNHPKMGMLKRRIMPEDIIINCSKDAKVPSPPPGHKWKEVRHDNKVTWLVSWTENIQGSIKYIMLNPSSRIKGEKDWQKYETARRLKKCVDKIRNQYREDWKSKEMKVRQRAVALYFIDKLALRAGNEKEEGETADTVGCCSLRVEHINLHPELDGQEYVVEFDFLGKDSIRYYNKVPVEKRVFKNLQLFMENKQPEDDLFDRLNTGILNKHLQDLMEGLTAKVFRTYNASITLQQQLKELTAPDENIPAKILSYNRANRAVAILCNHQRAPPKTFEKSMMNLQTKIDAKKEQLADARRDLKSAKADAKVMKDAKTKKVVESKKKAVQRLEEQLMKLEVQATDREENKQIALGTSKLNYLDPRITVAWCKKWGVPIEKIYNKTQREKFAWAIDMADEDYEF

Compound | pIC50 [1] | further results
CC(C)[C@H](N)C(=O)NC1CCC(Nc2cccc3c2C(=O)c2ccccc2C3=O)CC1 (stereo partly drawn) [Example 36, (2S)-2-amino-N-{4-[(9,10-dioxoanthryl)amino]cyclohexyl}-3-methylbutanamide trifluoroacetate salt] | 5.35 | –
NCC(=O)Nc1ccc(Nc2cccc3c2C(=O)c2ccccc2C3=O)cc1 [Example 70, 2-amino-N-{4-[(9,10-dioxoanthryl)amino]phenyl}acetamide trifluoroacetate salt] | 5.66 | –
C[C@H](N)C(=O)OC1CCN(c2cccc3c2C(=O)c2ccccc2C3=O)CC1.O=C(O)C(F)(F)F [Example 11, 1-(9,10-dioxoanthryl)-4-piperidyl-(2S)-2-aminopropanoate trifluoroacetate salt] | 4.85 | DNA-topoisomerase activity: inhibition of topo I relaxation ([2]; between 25-100 μM): NO inhibition between 25-100 μM
C[C@H](NC(=O)OC(C)(C)C)C(=O)N1CCN(c2cccc3c2C(=O)c2ccccc2C3=O)CC1 [Example 16, 1-(1-N-tertiarybutoxycarbonyl-L-alanylpiperazinyl)anthracene-9,10-dione] | – | DNA-topoisomerase activity: inhibition of topo I relaxation ([2]; between 25-100 μM): NO inhibition between 25-100 μM
NCCCC[C@H](N)C(=O)N1CCN(c2cccc3c2C(=O)c2ccccc2C3=O)CC1 [Example 79, 1-[4-((2S)-2-6-diaminohexanoyl)piperazinyl]anthracene-9,10-dione bis trifluoroacetate salt] | 4.55 | –
C[C@H](N)C(=O)N1CCN(c2cccc3c2C(=O)c2cccc(N4CCN(C(=O)[C@H](C)N)CC4)c2C3=O)CC1 [Example 23, 1,5-bis(1-L-alanylpiperazinyl)anthracene-9,10-dione trifluoroacetate salt] | 4.82 | –
CC(C)[C@H](N)C(=O)NCCCN1CCN(CCCNc2cccc3c2C(=O)c2ccccc2C3=O)CC1.O=C(O)C(F)(F)F [Example 55, (2S)-2-amino-N-[3-(4-{3-[(9,10-dioxoanthryl)amino]propyl}-piperazinyl)propyl]-3-methylbutanamide trifluoroacetate salt] | – | DNA-topoisomerase activity: inhibition of topo I relaxation ([2]; at 25 μM): PARTIAL inhibition; DNA-topoisomerase activity: inhibition of topo I relaxation ([2]; at 50 μM): COMPLETE
N[C@H](Cc1ccccc1)C(=O)NCCCN1CCN(CCCNc2cccc3c2C(=O)c2ccccc2C3=O)CC1 [Example 61, (2R)-2-amino-N-[3-(4-{3-[(9,10-dioxoanthryl)amino]propyl}-piperazinyl)propyl]-3-phenylpropanamide trifluoroacetate salt] | 5.42 | –
NCC(=O)NC1CCC(Nc2cccc3c2C(=O)c2ccccc2C3=O)CC1 (centres unmarked) [Example 30, 2-amino-N-{4-[(9,10-dioxoanthryl)amino]cyclohexyl}acetamide trifluoroacetate salt] | 5.22 | –
C[C@H](N)C(=O)NC1CCC(Nc2cccc3c2C(=O)c2ccccc2C3=O)CC1 (stereo partly drawn) [Example 32, (2S)-2-amino-N-{4-[(9,10-dioxoanthryl)amino]cyclohexyl}propanamide trifluoroacetate salt] | 5.36 | –
C[C@@H](N)C(=O)NCCCN1CCN(CCCNc2cccc3c2C(=O)c2ccccc2C3=O)CC1 [Example 53, (2R)-2-amino-N-[3-(4-{3-[(9,10-dioxoanthryl)amino]propyl}-piperazinyl)propyl]propanamide trifluoroacetate salt] | 5.31 | –
N[C@H](Cc1ccccc1Cl)C(=O)NC1CCC(Nc2cccc3c2C(=O)c2ccccc2C3=O)CC1 (stereo partly drawn) [Example 46, (2R)-2-amino-N-{4-[(9,10-dioxoanthryl)amino]cyclohexyl}-3-(2-chloro-phenyl)propanamide trifluoroacetate salt] | 5.39 | –
((2S)pyrrolidine-2-yl)-N-[3-(4-{3-[(9,10-dioxoanthryl)amino]propyl}-piperazinyl)propyl]carboxamide trifluoroacetate salt [Example 57] | 5.34 | DNA-topoisomerase activity: inhibition of topo I relaxation ([2]; at 25 μM): PARTIAL inhibition; DNA-topoisomerase activity: inhibition of topo I relaxation ([2]; at 50 μM): COMPLETE
NCCC(=O)NC1CCCCC1Nc1cccc2c1C(=O)c1ccccc1C2=O (centres unmarked) [Example 68, 3-amino-N-{2-[(9,10-dioxoanthryl)amino]cyclohexyl}propanamide trifluoroacetate salt] | 5.21 | –
NCC(=O)NCCCN1CCN(CCCNc2cccc3c2C(=O)c2ccccc2C3=O)CC1.O=C(O)C(F)(F)F.O=C(O)C(F)(F)F.O=C(O)C(F)(F)F [Example 49, 2-amino-N-[3-(4-{3-[(9,10-dioxoanthryl)amino]propyl}piperazinyl)-propyl]acetamide tri-trifluoroacetate salt] | – | DNA-topoisomerase activity: inhibition of topo I relaxation ([2]; at 25 μM): PARTIAL inhibition; DNA-topoisomerase activity: inhibition of topo I relaxation ([2]; at 50 μM): COMPLETE
N[C@@H](Cc1ccc(O)cc1)C(=O)NCCCN1CCN(CCCNc2cccc3c2C(=O)c2ccccc2C3=O)CC1.O=C(O)C(F)(F)F [Example 63, (2S)-2-amino-N-[3-(4-{3-[(9,10-dioxoanthryl)amino]propyl}-piperazinyl)propyl]-3-(4-hydroxyphenyl)propanamide trifluoroacetate salt] | – | DNA-topoisomerase activity: inhibition of topo I relaxation ([2]; at 25 μM): PARTIAL inhibition; DNA-topoisomerase activity: inhibition of topo I relaxation ([2]; at 50 μM): COMPLETE
C[C@@H](N)C(=O)NC1CCC(Nc2cccc3c2C(=O)c2ccccc2C3=O)CC1 (stereo partly drawn) [Example 34, (2R)-2-amino-N-{4-[(9,10-dioxoanthryl)amino]cyclohexyl}propanamide trifluoroacetate salt] | 5.41 | –
C[C@H](N)C(=O)NC1CCCCC1Nc1cccc2c1C(=O)c1ccccc1C2=O.O=C(O)C(F)(F)F (stereo partly drawn) [Example 66, (2S)-2-amino-N-{2-[(9,10-dioxoanthryl)amino]cyclohexyl}propanamide trifluoroacetate salt] | 5.17 | DNA-topoisomerase activity: inhibition of topo I relaxation ([2]; at 10 μM): COMPLETE inhibition at 10 μM; concentrations; DNA-topoisomerase activity: inhibition of topo I relaxation ([2]; concentrations above 10 μM): above this value antagonised inhibitory activity
N[C@@H](Cc1ccc(Cl)cc1)C(=O)NC1CCC(Nc2cccc3c2C(=O)c2ccccc2C3=O)CC1 (stereo partly drawn) [Example 94, (2S)-2-amino-N-{4-[(9,10-dioxoanthryl)amino]cyclohexyl}-3-(4-chlorophenyl)propanamide trifluoroacetate salt] | 6.00 | –
CC(C)[C@@H](N)C(=O)NC1CCC(Nc2cccc3c2C(=O)c2ccccc2C3=O)CC1 (stereo partly drawn) [Example 38, (2R)-2-amino-N-{4-[(9,10-dioxoanthryl)amino]cyclohexyl}-3-methylbutanamide trifluoroacetate salt] | 5.38 | –
O=C1c2ccccc2C(=O)c2c1cccc2N1CCC[C@H]1C(=O)O [Example 6, (2S)-1-(9,10-dioxoanthryl)prrolidine-2-carboxylic acid] | – | DNA-topoisomerase activity: inhibition of topo I relaxation ([2]; at 100 μM): PARTIAL inhibition at 100 μM
N[C@@H](Cc1ccccc1Cl)C(=O)NC1CCC(Nc2cccc3c2C(=O)c2ccccc2C3=O)CC1 (stereo partly drawn) [Example 44, (2S)-2-amino-N-{4-[(9,10-dioxoanthryl)amino]cyclohexyl}-3-(2-chlorophenyl)propanamide trifluoroacetate salt] | 5.52 | –
C[C@H](N)C(=O)OC[C@@H]1CCCN1c1cccc2c1C(=O)c1ccccc1C2=O [Example 13, [(2S)]-1-(9,10-dioxoanthryl)pyrrolidin-2-yl]methyl (2S)-2-aminopropanoate trifluoroacetate salt] | 4.66 | –
O=C1c2ccccc2C(=O)c2c(NC3CCC(NC(=O)[C@@H]4CCCN4)CC3)cccc21 (stereo partly drawn) [Example 40, ((2S)pyrrolidin-2-yl)-N-{4-[(9,10-dioxoanthryl)amino]cyclohexyl}-carboxamide trifluoroacetate salt] | 5.38 | –
